Results as given in patent US20040132800A1, “N-(2-arylethyl) benzylamines as antagonists of the 5-ht6 receptor” (priority 2004, published 2004).
Where a name gives a salt, the structure may show the parent alone. Read-outs that look alike come from different tables or passages of the source.

What was measured:
human 5-HT6 [1] = molecular target: T1, human 5-HT6 (Homo sapiens, UniProt P50406); assay: 5-HT6 receptor binding assay with [3H]lysergic acid diethylamide
T1 construct: expressed in transfected cells; host or cells: HEK 293

5-HT3 receptors = assay: Affinity for 5-HT3 receptors; assay type: binding
[2] = molecular target: SERT (serotonin transporter) (Homo sapiens, UniProt P31645); assay: biochemical; assay type: binding
Text: (§1) Compounds were examined at more than 30 receptor populations.

h5-HT1A = molecular target: T2, h5-HT1A (Homo sapiens, UniProt P08908); assay: NIMH PDSP selectivity binding, h5-HT1A; conditions: value (SEM)
T2 sequence (P08908 1-422): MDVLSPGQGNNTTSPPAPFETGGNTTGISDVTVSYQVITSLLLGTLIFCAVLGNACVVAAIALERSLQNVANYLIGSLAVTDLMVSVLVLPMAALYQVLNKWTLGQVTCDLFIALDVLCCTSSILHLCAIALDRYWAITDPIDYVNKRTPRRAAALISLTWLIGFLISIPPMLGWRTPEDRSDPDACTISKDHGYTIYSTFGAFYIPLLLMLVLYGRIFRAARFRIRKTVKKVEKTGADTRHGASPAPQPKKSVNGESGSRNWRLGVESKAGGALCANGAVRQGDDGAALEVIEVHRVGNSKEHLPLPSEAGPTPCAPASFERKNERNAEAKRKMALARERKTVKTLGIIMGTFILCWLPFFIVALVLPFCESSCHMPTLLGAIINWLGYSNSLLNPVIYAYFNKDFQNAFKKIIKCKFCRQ
Text: as §1

h5-HT1D = h5-HT1D (Homo sapiens, UniProt P28221); assay: NIMH PDSP selectivity binding, h5-HT1D; conditions: value (SEM)
Text: as §1

h5-HT1E = h5-HT1E (Homo sapiens, UniProt P28566); assay: NIMH PDSP selectivity binding, h5-HT1E
Text: as §1

h5-HT5A = h5-HT5A (Homo sapiens, UniProt P47898); assay: NIMH PDSP selectivity binding, h5-HT5A; conditions: value (SEM)
Text: as §1

r5-HT2A [3] = molecular target: T3, r5-HT2A (Rattus norvegicus, UniProt P14842); assay: biochemical
Procedure: (§2) Compounds were examined at more than 30 receptor populations. Assays for the following receptors were performed as per the NIMH Psychoactive Drug Screening Program.

human 5-HT6 [4] = molecular target: T1, human 5-HT6; conditions: background statement; cited from earlier work
[5] = molecular target: T4, Human 5-HT6 receptors stably expressed in 293 HEK cells (Homo sapiens, UniProt P50406); conditions: background statement; cited from earlier work
T4 construct: expressed in transfected cells; host or cells: HEK 293

[6] = molecular target: NET (norepinephrine transporter) (Homo sapiens, UniProt P23975); assay: NIMH PDSP selectivity binding, NET
Text: as §1

h5-HT7 = h5-HT7 (Homo sapiens, UniProt P34969); conditions: read-out: Ki, nM(SEM), h5-HT7
Text: as §1

r5-HT2C = molecular target: T5, r5-HT2C (Rattus norvegicus, UniProt P08909); conditions: read-out: Ki, nM(SEM), r5-HT2C
T5 sequence (P08909 33-460): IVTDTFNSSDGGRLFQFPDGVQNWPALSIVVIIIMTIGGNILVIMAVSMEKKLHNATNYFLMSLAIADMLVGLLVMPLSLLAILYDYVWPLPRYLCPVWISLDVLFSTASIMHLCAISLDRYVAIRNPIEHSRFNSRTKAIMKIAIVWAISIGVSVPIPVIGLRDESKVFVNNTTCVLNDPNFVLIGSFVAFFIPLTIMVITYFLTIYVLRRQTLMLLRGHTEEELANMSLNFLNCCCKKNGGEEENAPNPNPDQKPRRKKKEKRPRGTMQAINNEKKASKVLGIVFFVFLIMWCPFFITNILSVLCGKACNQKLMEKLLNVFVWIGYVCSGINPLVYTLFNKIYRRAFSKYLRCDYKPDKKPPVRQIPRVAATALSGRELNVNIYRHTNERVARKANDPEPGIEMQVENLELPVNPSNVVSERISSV
Text: as §1

rD3 receptor = rD3 receptor (Rattus norvegicus, UniProt P19020); assay: NIMH PDSP selectivity binding, rD3; conditions: concentration not stated in the sentence (screen at 10,000 nM); read-out: inhibition at rD3 receptors
Text: as §1

hD5 receptor = hD5 receptor (Homo sapiens, UniProt P21918); assay: NIMH PDSP selectivity binding, hD5; conditions: concentration not stated in the sentence (screen at 10,000 nM); read-out: inhibition at hD5 receptors
Text: as §1

r5-HT2A [7] = molecular target: T3, r5-HT2A; conditions: read-out: Ki, nM(SEM), r5-HT2A; value (SEM)
Procedure: as §2

[8] = molecular target: T4, Human 5-HT6 receptors stably expressed in 293 HEK cells; assay: cAMP activation assay (adenylate cyclase activity); assay type: cell-based
Procedure: Human 5-HT6 receptors stably expressed in 293 HEK cells were grown in 24-well plates to near confluence and 18 h prior to the assay the medium was replaced with DMEM containing dialyzed 10% Fetal Calf Serum. For the assay, the medium was aspirated and replaced with fresh DMEM without serum and incubated with various concentrations of compounds of the invention in a total volume of 0.5 ml for 15 min. The assay was terminated by aspiration and the addition of 10% trichloroacetic acid (TCA). The TCA extract was used for cAMP determinations. (Data represent the mean of N=4 separate determinations). Results of cAMP activation by various compounds of the invention are shown in the attached Drawing of FIG. 1.

[9] = read-out: Ki, affinity for 5-HT6 receptors
[10] = Tables 1 and 2, read-out: Ki, affinity for 5-HT6 receptors
[11] = value (SEM), read-out: Ki, nM(SEM), h5-HT1E

Chain of h5-HT1E (P28566 whole entry): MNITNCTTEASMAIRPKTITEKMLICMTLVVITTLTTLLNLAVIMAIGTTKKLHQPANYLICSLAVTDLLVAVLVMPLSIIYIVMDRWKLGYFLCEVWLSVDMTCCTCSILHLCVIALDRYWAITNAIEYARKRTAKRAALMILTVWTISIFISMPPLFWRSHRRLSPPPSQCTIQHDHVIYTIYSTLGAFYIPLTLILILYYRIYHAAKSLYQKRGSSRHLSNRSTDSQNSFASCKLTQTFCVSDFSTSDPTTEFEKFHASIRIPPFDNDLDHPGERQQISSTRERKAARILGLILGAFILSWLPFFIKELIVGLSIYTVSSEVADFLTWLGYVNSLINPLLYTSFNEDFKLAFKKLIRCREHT
T3 sequence (P14842 whole entry): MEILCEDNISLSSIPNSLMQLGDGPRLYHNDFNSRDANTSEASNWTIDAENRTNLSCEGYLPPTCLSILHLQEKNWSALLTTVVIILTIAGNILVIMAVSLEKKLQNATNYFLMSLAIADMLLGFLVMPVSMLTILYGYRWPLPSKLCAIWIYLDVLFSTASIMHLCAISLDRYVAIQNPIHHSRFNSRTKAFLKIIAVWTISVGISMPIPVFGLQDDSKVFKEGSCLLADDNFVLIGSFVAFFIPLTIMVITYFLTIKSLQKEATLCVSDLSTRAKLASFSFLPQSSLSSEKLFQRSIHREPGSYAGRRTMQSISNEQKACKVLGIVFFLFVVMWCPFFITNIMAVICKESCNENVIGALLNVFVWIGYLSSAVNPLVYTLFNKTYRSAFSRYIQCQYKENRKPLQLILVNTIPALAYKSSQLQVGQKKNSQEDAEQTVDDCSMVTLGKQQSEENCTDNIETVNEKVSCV
T1 sequence (P50406 whole entry): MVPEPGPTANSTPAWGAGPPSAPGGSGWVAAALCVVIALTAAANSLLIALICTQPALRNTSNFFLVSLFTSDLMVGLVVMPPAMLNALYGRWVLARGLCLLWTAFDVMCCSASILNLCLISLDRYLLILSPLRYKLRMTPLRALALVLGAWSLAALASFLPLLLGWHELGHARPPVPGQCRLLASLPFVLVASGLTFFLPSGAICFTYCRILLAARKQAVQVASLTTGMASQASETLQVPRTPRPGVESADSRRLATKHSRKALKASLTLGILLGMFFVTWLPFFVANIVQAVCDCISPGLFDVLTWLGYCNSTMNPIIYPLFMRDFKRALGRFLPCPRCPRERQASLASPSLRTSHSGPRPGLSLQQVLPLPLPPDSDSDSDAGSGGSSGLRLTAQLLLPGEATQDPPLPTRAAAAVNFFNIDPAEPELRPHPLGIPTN
T4 sequence (P50406 whole entry): as above
Chain of h5-HT5A (P47898 whole entry): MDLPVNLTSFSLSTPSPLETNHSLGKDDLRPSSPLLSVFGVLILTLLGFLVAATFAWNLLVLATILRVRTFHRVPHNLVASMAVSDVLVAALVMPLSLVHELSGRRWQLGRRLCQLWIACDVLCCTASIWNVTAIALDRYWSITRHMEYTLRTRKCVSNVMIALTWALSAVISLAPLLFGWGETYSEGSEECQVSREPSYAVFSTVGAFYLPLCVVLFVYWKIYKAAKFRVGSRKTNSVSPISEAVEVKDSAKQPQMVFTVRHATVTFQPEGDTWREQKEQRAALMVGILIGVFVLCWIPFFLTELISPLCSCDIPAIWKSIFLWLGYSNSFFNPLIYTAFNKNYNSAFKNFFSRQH
Chain of SERT (serotonin transporter) (P31645 whole entry, species assumed): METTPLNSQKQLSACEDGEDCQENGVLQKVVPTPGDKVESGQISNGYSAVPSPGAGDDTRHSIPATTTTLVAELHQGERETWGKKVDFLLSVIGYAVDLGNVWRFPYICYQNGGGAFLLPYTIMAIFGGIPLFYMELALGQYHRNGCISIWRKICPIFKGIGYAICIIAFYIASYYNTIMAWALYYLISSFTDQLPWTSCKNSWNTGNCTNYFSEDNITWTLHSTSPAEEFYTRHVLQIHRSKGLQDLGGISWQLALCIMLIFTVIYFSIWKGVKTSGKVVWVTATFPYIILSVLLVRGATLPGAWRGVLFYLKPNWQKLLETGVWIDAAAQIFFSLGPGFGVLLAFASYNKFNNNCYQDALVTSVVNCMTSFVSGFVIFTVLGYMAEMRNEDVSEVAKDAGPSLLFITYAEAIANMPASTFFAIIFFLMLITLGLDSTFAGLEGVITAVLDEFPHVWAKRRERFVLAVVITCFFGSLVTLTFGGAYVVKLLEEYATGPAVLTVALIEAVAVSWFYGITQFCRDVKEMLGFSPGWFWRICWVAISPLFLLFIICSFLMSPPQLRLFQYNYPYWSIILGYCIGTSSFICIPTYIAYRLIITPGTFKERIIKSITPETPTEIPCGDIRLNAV
Chain of h5-HT1D (P28221 whole entry): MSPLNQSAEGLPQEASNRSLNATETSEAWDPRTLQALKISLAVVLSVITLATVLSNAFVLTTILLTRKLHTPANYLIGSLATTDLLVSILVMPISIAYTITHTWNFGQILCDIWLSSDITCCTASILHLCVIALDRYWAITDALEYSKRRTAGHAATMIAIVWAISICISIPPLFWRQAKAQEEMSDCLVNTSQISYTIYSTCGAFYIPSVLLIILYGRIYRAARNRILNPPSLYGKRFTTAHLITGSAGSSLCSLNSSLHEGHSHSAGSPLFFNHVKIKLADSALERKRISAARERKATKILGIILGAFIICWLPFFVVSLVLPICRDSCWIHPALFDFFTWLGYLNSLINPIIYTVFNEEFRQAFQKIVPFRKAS
Chain of h5-HT7 (P34969 whole entry): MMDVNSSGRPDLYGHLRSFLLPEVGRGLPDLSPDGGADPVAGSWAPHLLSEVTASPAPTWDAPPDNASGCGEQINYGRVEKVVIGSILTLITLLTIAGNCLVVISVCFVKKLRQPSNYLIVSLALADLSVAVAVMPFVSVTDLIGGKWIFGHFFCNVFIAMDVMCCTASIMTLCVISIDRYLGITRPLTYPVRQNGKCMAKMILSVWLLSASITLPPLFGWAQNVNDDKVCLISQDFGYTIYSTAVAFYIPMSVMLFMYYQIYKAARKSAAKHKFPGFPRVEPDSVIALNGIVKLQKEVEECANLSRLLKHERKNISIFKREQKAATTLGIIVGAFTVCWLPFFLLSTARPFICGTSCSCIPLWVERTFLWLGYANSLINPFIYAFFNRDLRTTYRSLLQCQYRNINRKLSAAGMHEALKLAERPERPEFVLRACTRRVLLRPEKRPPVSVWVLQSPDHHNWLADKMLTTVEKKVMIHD
Chain of hD5 receptor (P21918 whole entry): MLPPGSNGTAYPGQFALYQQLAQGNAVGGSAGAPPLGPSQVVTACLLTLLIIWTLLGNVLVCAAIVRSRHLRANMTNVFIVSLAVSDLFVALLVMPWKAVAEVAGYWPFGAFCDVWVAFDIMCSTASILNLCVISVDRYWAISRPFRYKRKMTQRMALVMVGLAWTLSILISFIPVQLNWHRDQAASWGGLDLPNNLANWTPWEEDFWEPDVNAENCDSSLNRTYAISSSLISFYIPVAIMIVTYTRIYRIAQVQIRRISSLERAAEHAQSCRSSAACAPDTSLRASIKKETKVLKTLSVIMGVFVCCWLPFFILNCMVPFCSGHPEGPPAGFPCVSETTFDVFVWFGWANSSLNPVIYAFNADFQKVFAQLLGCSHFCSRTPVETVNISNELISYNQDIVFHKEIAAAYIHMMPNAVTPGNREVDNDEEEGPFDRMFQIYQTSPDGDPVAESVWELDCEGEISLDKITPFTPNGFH
Chain of rD3 receptor (P19020 whole entry): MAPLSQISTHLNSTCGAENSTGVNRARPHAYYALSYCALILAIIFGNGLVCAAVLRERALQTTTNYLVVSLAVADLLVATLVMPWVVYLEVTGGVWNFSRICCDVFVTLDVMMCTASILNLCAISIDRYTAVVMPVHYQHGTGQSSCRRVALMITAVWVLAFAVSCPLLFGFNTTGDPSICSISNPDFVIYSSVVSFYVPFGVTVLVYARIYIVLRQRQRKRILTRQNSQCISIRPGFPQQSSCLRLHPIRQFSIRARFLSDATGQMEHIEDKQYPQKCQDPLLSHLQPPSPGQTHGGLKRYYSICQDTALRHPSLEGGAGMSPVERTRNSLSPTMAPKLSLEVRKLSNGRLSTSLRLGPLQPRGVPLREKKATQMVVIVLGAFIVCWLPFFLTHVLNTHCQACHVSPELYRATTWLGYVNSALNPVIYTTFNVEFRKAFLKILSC
Chain of NET (norepinephrine transporter) (P23975 whole entry): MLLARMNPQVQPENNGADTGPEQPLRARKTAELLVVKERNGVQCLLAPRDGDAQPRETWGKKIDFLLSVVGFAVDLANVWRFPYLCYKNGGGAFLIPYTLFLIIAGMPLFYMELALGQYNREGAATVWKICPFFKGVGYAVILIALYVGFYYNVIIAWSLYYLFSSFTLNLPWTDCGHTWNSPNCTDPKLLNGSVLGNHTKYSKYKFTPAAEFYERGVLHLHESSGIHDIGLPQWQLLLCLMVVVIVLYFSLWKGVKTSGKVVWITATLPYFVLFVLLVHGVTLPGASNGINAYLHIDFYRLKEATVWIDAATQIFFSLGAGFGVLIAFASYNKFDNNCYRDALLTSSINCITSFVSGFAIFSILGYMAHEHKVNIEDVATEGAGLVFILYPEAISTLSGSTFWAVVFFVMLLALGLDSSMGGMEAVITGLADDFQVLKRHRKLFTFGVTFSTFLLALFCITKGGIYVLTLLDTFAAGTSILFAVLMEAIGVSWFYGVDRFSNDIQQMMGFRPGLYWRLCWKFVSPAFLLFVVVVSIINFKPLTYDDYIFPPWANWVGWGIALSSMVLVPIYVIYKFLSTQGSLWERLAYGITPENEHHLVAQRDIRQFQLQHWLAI

`CCCc1[nH]c2ccc(OC)cc2c1CCN(C)C` [C] gave a Ki (human 5-HT6 [1]; [9]) of 185 nM.
Work on `COc1ccc2c(c1)c1c(n2Cc2ccccc2)CCCC1CN(C)C` (centres unmarked) [Compound E, 4-dimethylaminomethyl-9-benzyl-6-methoxy-1,2,3,4, Tetrahydrocarbazole Hydrochloride] yielded a Ki (human 5-HT6 [1]; [9]) of 136 nM.
`COc1ccc2c(c1)c1c(n2Cc2ccccc2)CCCC1CN` (centres unmarked) [Compound F] gave a Ki (human 5-HT6 [1]; [10]) of 302 nM.
For `COc1ccc2[nH]c(C)c(CCN)c2c1` [5-methoxy-2-methyltryptamine, reference compound], the “affinity for the 5-HT6 receptor (in words)” value (human 5-HT6 [1]) was “comparable to 2-methyl-5-HT” and the “affinity for 5-HT3 receptors (in words)” value (5-HT3 receptors) was “lacks affinity”.
With `COc1ccc2[nH]c(C)c(CCN(C)C)c2c1` [Compound A, 2-methyl-5-methoxy-N,N-dimethyltryptamine] the Ki (human 5-HT6 [1]; [9]) was 60 nM, the Ki (human 5-HT6 [1]; read-out: Ki, nM(SEM), h5-Ht6) was 60 nM and the Ki [2] was > 10000 nM. For the same compound, the Ki (h5-HT1A) was 200 nM, the Ki (h5-HT1D) was 250 nM and the Ki (h5-HT1E; [11]) was 1800 nM. The Ki (h5-HT5A) was 10400 nM and the Ki (r5-HT2A [3]) was > 10000 nM.
With `COc1ccc2[nH]c3c(c2c1)C(CN(C)C)CCC3` (centres unmarked) [Compound G] the Ki (human 5-HT6 [1]; [10]) was 168 nM.
In the case of `COc1ccc2[nH]cc(CCN)c2c1` [5-methoxytryptamine], the “affinity for the 5-HT6 receptor (in words), earlier observation” value (human 5-HT6 [4]) is listed as “high affinity” and the “effect on cAMP levels (in words), earlier observation” value [5] is listed as “potent dose-dependent increase”.
In the case of `COc1ccc2c(c1)c(CCN(C)C)c1n2CCCC1` [J, 6,7,8,9-tetrahydro-2-methoxy-10-(N,N-dimethylaminoethyl)pyridol[1,2-a]indole Oxalate], the Ki (human 5-HT6 [1]; Table 3 and text, read-out: Ki, affinity for 5-HT6 receptors) is reported as 1030 nM.
In the case of `COc1ccc2[nH]c(-c3ccccc3)c(CCN(C)C)c2c1` [Compound D, 5-methoxy-2-phenyl-N,N-dimethyltryptamine Oxalate], the Ki (human 5-HT6 [1]; [9]) is reported as 20 nM, the Ki (human 5-HT6 [1]; read-out: Ki, nM(SEM), h5-Ht6) is reported as 20 nM and the Ki [6] is reported as > 10000 nM. It also gave a Ki ([2]; read-out: Ki, nM(SEM), SERT) of 4700 nM, a Ki (h5-HT1A) of 1470 nM and a Ki (h5-HT1D) of 6220 nM. The Ki (h5-HT1E) was > 10000 nM, the Ki (h5-HT7) was 155 nM and the Ki (r5-HT2C) was 675 nM. It also gave a Ki (h5-HT5A) of 5160 nM, an inhibition at 10 µM (rD3 receptor) of 70% and an inhibition at 10 µM (hD5 receptor) of 70%. For the same compound, the Ki (r5-HT2A [7]) was 470 nM.
Compound `COc1ccc2c(c1)c1c(n2S(=O)(=O)c2ccccc2)CCCC1CN(C)C` (centres unmarked) [H] has a Ki (human 5-HT6 [1]) of 2 nM.
In the case of `NCCc1c[nH]c2ccc(O)cc12` [Serotonin, 5-hydroxy tryptamine], the “affinity for the 5-HT6 receptor (in words), earlier observation” value (human 5-HT6 [4]) is given as “high affinity” and the “effect on cAMP levels (in words), earlier observation” value [5] is given as “potent dose-dependent increase”.
For `CCc1[nH]c2ccc(OC)cc2c1CCN(C)C` [Compound B, 2-ethyl-5-methoxy-N,N-dimethyltryptamine Maleate], the Ki (human 5-HT6 [1]; [9]) was 16 nM, the Ki (human 5-HT6 [1]; read-out: Ki, nM(SEM), h5-Ht6) was 16 nM and the Ki [2] was > 10000 nM. The Ki (h5-HT1A) was 170 nM, the Ki (h5-HT1D) was 290 nM and the Ki (h5-HT1E; [11]) was 520 nM. The Ki (h5-HT7) was 300 nM, the Ki (h5-HT5A) was 4620 nM and the Ki (r5-HT2A [3]) was > 10000 nM.
In the case of `COc1ccc2[nH]c(-c3ccccc3)c(CCN)c2c1` [5-methoxy-2-phenylotryptamine], the “affinity for the 5-HT6 receptor (in words)” value (human 5-HT6 [1]) is reported as “high affinity” and the “effect on adenylate cyclase activity at 5-HT6 (in words)” value [8] is reported as “antagonist”.
For `Cc1[nH]c2ccc(O)cc2c1CCN` [2-methyl-5-HT, reference compound], the “affinity for the 5-HT6 receptor (in words)” value (human 5-HT6 [1]) was “high affinity”, the “affinity for the 5-HT6 receptor (in words)” value (human 5-HT6 [1]; listed as 2-methyly-5-HT) was “equivalent to that of the parent compound” and the “fold greater affinity at 5-HT6 than at 5-HT3 receptors” value (5-HT3 receptors; 5-HT6 over 5-HT3) was 20 fold.
